Experimental findings from ChEMBL document CHEMBL1201862, “PubChem BioAssay data set” (2004) are described below.

Activity calls are given as the source filed them.

The AC50 is the concentration giving half of the maximal activity seen. One may read the EC50 as the concentration that produces a half-maximal response.

Test [1] can be described thus: cells. Particulars: HEK293.
The target in test [2] is T1, DNA repair protein RAD52 homolog (Homo sapiens, UniProt P43351).
T1 sequence (P43351 whole entry): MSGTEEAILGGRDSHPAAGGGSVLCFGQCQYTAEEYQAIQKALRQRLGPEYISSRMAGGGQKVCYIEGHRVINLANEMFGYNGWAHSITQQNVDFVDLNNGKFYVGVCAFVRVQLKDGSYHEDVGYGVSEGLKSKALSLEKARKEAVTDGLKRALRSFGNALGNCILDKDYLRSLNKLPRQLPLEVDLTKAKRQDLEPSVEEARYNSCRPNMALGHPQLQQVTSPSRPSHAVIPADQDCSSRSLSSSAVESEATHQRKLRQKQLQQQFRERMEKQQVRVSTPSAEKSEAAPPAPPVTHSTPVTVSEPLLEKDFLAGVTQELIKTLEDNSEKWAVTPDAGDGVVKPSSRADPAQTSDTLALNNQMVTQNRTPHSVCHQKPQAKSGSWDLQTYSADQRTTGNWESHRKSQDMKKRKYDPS
In kind it is functional, biochemical.

Test [3] in a line: HepG2 cell cytotoxicity, dose response, cytotoxicity control, ATP luminescence, cherry-pick, set 6 (AID 1053125). In kind it is functional, cell-based.
The target of test [4] is COUP transcription factor 2 (Homo sapiens, UniProt P24468). Put plainly: Luminescence-based cell-based high throughput dose response assay to identify inhibitors of COUP-TFII (NR2F2). It counts as functional.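 Note: HEK293 cells transiently cotransfected with COUP-TFII expression vector and reporter; luciferase reporter luminescence driven by COUP-TFII from the pX2-168 reporter plasmid.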
Sequence of COUP transcription factor 2 (P24468 whole entry): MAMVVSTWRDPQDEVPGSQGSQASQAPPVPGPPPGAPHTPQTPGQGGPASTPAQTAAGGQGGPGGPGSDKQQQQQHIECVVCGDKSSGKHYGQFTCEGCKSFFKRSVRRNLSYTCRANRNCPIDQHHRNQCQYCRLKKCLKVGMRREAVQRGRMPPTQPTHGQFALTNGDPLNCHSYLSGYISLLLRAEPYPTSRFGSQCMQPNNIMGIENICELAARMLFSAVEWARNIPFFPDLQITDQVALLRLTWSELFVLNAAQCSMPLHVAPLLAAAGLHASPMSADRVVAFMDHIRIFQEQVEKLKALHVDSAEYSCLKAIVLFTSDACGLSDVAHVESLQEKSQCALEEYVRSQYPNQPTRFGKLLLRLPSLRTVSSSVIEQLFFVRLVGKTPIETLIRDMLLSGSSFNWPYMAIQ
Test [5] can be described thus: inhibitors of intracellular T. cruzi replication, confirmation, NIH3T3 host cells, beta-gal luminescence (AID 2044).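 Note: intracellular parasites grown in NIH/3T3 mouse fibroblasts as host cells; luminescent beta-galactosidase reporter signal from transgenic T. cruzi replicating inside host cells; inhibitors lower the luminescence signal.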 In kind it is functional, cell-based.
A short description of test [6]: cytotoxicity toward NIH3T3 fibroblasts, dose response, counter-screen, cell-based, ATP luminescence, mouse fibroblasts (AID 2010).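 Note: cells exposed to compound for about 90 hours before reading.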 It counts as functional. A general note: Counterscreens check selectivity or assay interference.
Test [7] deals with T2, Aminopeptidase N (Plasmodium falciparum FcB1/Columbia, UniProt O96935).
T2 sequence (O96935 whole entry): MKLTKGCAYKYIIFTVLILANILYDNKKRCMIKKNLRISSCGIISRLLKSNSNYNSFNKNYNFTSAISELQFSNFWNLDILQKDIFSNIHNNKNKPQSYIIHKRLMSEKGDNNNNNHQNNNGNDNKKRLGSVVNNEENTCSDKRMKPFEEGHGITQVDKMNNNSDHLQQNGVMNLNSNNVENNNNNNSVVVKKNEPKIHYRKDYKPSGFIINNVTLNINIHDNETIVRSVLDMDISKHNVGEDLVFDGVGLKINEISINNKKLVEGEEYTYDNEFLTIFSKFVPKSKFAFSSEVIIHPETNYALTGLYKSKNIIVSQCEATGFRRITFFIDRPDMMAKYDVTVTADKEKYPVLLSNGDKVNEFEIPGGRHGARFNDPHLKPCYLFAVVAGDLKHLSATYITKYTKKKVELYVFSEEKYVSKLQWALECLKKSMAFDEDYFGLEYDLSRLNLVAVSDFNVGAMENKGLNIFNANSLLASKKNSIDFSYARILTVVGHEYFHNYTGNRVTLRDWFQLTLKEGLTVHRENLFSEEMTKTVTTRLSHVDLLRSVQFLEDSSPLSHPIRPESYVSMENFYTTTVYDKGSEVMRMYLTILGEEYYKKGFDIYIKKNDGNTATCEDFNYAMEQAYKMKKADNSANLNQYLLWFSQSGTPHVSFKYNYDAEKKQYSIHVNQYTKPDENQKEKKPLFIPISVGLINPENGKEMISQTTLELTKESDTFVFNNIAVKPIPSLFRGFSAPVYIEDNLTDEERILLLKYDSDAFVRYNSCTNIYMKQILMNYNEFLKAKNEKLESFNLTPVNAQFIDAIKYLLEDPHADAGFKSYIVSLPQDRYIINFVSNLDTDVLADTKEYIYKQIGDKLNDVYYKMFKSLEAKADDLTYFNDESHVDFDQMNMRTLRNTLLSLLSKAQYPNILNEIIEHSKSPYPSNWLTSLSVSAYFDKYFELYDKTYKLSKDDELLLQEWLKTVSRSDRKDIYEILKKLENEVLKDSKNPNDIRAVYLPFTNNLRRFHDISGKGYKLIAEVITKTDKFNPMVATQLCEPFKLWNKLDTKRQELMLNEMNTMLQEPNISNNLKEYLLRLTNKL
Put plainly: P. falciparum M1AAP inhibitors, biochemical, fluorogenic H-Leu-NHMec substrate, 1536-well (AID 1445). Details: species or system Plasmodium falciparum 3D7, 3D7.

Test [8] is described as follows: Artemis endonuclease inhibitor potency, dose response, biochemical, fluorescence intensity (AID 720701).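 Note: Artemis endonuclease enzyme.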 It counts as functional.
The target of test [9] is T3, Leucine aminopeptidase (Plasmodium falciparum 3D7, UniProt Q8IL11).
T3 sequence (Q8IL11 whole entry): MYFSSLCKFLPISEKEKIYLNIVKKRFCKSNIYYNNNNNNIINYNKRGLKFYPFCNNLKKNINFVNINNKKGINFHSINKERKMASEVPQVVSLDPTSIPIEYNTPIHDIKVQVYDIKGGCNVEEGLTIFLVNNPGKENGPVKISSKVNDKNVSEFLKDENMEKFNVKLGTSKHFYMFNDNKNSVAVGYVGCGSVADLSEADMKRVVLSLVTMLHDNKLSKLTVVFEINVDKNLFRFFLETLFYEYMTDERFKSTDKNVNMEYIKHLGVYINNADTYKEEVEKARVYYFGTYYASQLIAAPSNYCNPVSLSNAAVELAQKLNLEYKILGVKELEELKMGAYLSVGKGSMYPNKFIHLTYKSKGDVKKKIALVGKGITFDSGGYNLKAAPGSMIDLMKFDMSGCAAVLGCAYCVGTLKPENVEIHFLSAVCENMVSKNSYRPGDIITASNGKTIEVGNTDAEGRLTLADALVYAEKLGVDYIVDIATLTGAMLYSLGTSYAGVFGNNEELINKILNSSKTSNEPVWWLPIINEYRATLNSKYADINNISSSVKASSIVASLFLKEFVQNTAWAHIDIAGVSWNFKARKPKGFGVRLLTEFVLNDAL
Put plainly: P. falciparum M17LAP inhibitors, primary screen, biochemical, fluorogenic H-Leu-NHMec substrate, 1536-well (AID 1619). It counts as functional.

The target in test [10] is T4, Interleukin-8 (Homo sapiens, UniProt P10145). Put plainly: Dose Response confirmation of uHTS small molecule hits for cystic fibrosis induced NFkb Inhibitors in a TNFa-induced IL8 counterscreen. The note with it: read-out: IC50_Mean. It counts as functional.
T4 sequence (P10145 whole entry): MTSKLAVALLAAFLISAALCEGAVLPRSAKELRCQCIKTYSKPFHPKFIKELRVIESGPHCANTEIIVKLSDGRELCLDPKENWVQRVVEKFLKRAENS
Test [11] in a line: reduction of Shn3 3'UTR firefly luciferase signal, dose response, Schnurri-3 inhibitor project, cell-based, Clone20 osteoblasts, cherry-pick, set 2 (AID 720490).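 Note: actives lower the luminescence signal as inhibitors.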 It counts as functional.
Test [12] can be described thus: control 3'UTR Renilla luciferase suppression, dose response, counter-screen for Shn3 inhibitor project, cell-based, Clone20-Shn3RL, cherry-picked (AID 624133). In kind it is functional.
Test [13] in a line: Shn3 3'UTR reporter inhibitors, dose response, cell-based, Clone20 osteoblasts, firefly luciferase, cherry-picked (AID 624132).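 Note: firefly luciferase luminescence from reporter carrying the Shn3 3'UTR in osteoblasts.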 In kind it is functional.
Test [14] in a line: HepG2 cell cytotoxicity, dose response, cytotoxicity control for Shn3 inhibitor project, CellTiter-Glo, cherry-picked (AID 624134). In kind it is functional, cell-based. In general terms: Cellular ATP, detected with luciferase, serves as a proxy for viable cell number.
Test [15] is described as follows: inhibitors of control Renilla luciferase reporter, dose response, counter-screen for Shn3 3'UTR targeting project, Clone20-Shn3RL cells, dual-Glo, cherry-pick, set 2 (AID 720724). In kind it is functional, cell-based. The note with it: Dual-Go Shn3RL. A general note: A reporter such as luciferase makes a cellular process visible.
Test [16] has as its system HEK293. Put plainly: inhibitors of LMP1-driven NF-kB reporter, dose response, cell-based, HEK293, luciferase, cherry-pick (AID 588343). In kind it is functional. The note with it: Homo sapiens.
The target of test [17] is T4, Interleukin-8. Put plainly: Dose Response confirmation of uHTS small molecule hits for cystic fibrosis induced NFkb Inhibitors in a PAF-induced IL8 counterscreen. The note with it: read-out: IC50_Mean. It counts as functional.
Test [18] in a line: inhibitors of firefly luciferase expression or activity, dose response, H4 neuroglioma cells, luminescence (AID 1990). In kind it is functional, cell-based.
Test [19] addresses Paired box protein Pax-8 (Homo sapiens, UniProt Q06710). As to the kind of experiment: inhibitors of PAX8-driven TPO luciferase reporter, dose response, RMG-I cells, cherry-pick (AID 687027).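 Note: luciferase reporter driven by Pax8 target thyroperoxidase promoter measured by SteadyGlo luminescence.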 In kind it is functional, cell-based.
A short description of test [20]: IOSE-T80 ovarian epithelial cell cytotoxicity, dose response, cytotoxicity control for PAX8 inhibitor project, plate reader, dry powder samples (AID 743045). It counts as functional, cell-based.
Test [21] relates to BJ. As to the kind of experiment: cytotoxicity toward Ras-transformed BJeLR fibroblasts, dose response, cell-based, alamar blue fluorescence, cherrypicked samples (AID 2631).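 Note: confirmatory dose-response assay in RAS-dependent BJ fibroblasts engineered with TERT, LT and ST, with cytotoxicity read by fluorescence.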 It counts as functional. The note with it: Homo sapiens.
The test system of test [22] is BJ. As to the kind of experiment: cells. The note with it: Homo sapiens. It counts as functional, cell-based.
The nature of test [23]: Luminescence Cell-Based Dose Response HTS to Identify Inhibitors of 5'UTR Stem-Loop Driven Prion Protein mRNA Translation in H4 Neuroglioblastoma Cells. [Related pubchem assays: 1827 (Project Summary), 1813 (Primary HTS)]. It counts as functional.
A short description of test [24]: PAX5 activity inhibitors, dose response, selectivity assay for PAX8 inhibitor project, cell-based, plate reader, dry powder samples (AID 743047).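 Note: HEK293 cells carrying a Pax5 driven CD19 promoter luciferase reporter; potency of inhibitors that lower reporter luminescence.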 In kind it is functional.
A short description of test [25]: inhibitors of SNCA 5'UTR-driven reporter translation, confirmation, H4 neuroglioma cells, luminescence (AID 1988). In kind it is functional, cell-based.
Test [26] has as its system BJ. Put plainly: cytotoxicity toward BJ-TERT fibroblasts, dose response, cell-based, RAS-independent, luminescence (AID 1933). In kind it is functional. The note with it: Homo sapiens.
The nature of test [27]: cytotoxicity dependent on PAX8, dose response, cell-based, plate reader, dry powder (AID 743049). In kind it is functional.
The nature of test [28]: cytotoxicity toward DRD oncogenic fibroblasts, dose response, cell-based, non-viral oncogenic, luminescence (AID 1934). The note with it: Homo sapiens. It counts as functional.
The test system of test [29] is BJ. As to the kind of experiment: cytotoxicity toward BJ-TERT-LT-ST fibroblasts, dose response, cell-based, RAS-independent, luminescence (AID 1935).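 Note: BJ fibroblasts immortalized with TERT plus LT and ST oncogenes.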 It counts as functional. Particulars: Homo sapiens.
Test [30] is described as follows: cytotoxicity in OV-90 ovarian cancer cells, dose response, PAX8 inhibitor project, cell-based, plate reader, dry powder, SA8 (AID 743149). It counts as functional.
A short description of test [31]: NIH:OVCAR-3 ovarian cancer cell cytotoxicity, dose response, PAX8 inhibitor project, plate reader, dry powder samples (AID 743044). It counts as functional, cell-based.
Test [32] is described as follows: cytotoxicity in COV362 ovarian cancer cells, dose response, cytotoxicity control for PAX8 inhibitor project, cell-based, plate reader, dry powder, SA12 (AID 743144). It counts as functional.
The nature of test [33]: cytotoxicity in COV434 cells, dose response, cytotoxicity control for PAX8 inhibitor project, cell-based, plate reader, dry powder, SA7 (AID 743145). In kind it is functional.
Test [34] is described as follows: A2780 ovarian cancer cell cytotoxicity, dose response, cytotoxicity control, plate reader, dry powder samples (AID 743046). It counts as functional, cell-based.
The nature of test [35]: IGROV1 ovarian cancer cell cytotoxicity, dose response, PAX8 inhibitor project, plate reader, dry powder samples (AID 743043). In kind it is functional, cell-based. Particulars: IGROV-1.
Test [36] is described as follows: cytotoxicity in OVCAR4 cells, dose response, cytotoxicity control for PAX8 inhibitor project, cell-based, plate reader, dry powder, SA11 (AID 743150). In kind it is functional. Particulars: OVCAR-4.
A short description of test [37]: PAX2 cell-based inhibition, dose response, selectivity assay for PAX8 inhibitor project, plate reader, dry powder samples (AID 743048).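 Note: HEK293 cells carrying a WT1 promoter luciferase reporter driven by expressed Pax2; potency is for inhibition of Pax2 driven reporter signal.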 In kind it is functional.

Sequence of Paired box protein Pax-8 (Q06710 whole entry): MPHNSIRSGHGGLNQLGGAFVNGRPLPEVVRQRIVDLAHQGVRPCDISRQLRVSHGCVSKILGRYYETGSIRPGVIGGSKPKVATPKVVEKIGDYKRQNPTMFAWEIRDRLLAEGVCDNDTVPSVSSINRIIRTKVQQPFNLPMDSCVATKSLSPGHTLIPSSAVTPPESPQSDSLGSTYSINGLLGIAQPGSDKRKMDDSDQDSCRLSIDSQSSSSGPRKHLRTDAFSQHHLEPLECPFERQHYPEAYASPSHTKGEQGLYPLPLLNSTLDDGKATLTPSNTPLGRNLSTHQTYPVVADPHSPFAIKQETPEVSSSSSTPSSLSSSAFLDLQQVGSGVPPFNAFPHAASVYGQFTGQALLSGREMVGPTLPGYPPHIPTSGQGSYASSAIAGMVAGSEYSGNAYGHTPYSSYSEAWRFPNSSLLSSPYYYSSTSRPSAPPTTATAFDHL

Turning to `Cc1cccn2c(=O)c3cc(C(=O)NC(C)c4ccccc4)c(=N)n(CCCn4ccnc4)c3nc12` (configuration not stated), the values for the AC50 in test [1], in test [2] and in test [3] were > 52 µM (inactive), 4.29 µM (active) and > 52 µM (inactive), respectively.

Turning to `Cc1c(C(=O)N2CCN(Cc3ccc4c(c3)OCO4)CC2)sc2ncnc(N3CCN(c4ccccc4F)CC3)c12`, in test [4], the IC50 is 6.85 µM (active). For the same compound, the figures for the concentration for a half-maximal effect (EC50) in test [5] and in [6] were 0.487 µM (active) and > 60 µM (not active), respectively.

For the compound `O=C(Cc1ccsc1-c1ccccc1)NO`, the IC50 in [7] was 10.4 µM (active); in test [8], 1.4 µM (active); in [9] it was 43.4 µM (active).

In the case of `Cc1ccccc1C(=O)N1CCN(c2ccc(NC(=O)CSc3ccc(Cl)cc3)cc2)CC1`, the IC50 in test [10] was 39.9 µM (inactive); in test [17] it was 1.6 µM (active). Moreover, the AC50 in [11] was 6.91 µM (active); in test [12], 25.2 µM (active); in test [13], 4.23 µM (active); in test [14], 44.1 µM (active); in test [15] it was 38.8 µM (active); in [16], 0.378 µM (active).

Turning to `CCOc1ccc2c(c1)C(C)=CC(C)(C)N2S(=O)(=O)c1ccc(NC(C)=O)cc1`, the EC50 in [18] was 0.199 µM (active); in [21], < 0.104 µM (active); in test [22], 1.54 µM (active); in [23], 0.162 µM (active); in [25], 0.129 µM (active); in [26] it was 0.642 µM (active). For the same compound, the EC50 in [28] is 0.722 µM (active); in test [29], 0.428 µM (inconclusive). In addition, the AC50 in test [19] was 1.61 µM (active); in test [20], 2.54 µM (active); in test [24], 89.2 µM (active); in test [27], 12.1 µM (active); in [30], 2.6 µM (active); in [31] it was 41.1 µM (active). In addition, the AC50 in test [32] is 4.1 µM (active); in test [33], 1.53 µM (active); in test [34], 4.06 µM (active); in test [35], 15.9 µM (active); in [36] it was 1.83 µM (active); in test [37] it was 31.8 µM (active).
